Where “and” joins values, the source holds several entries; their conditions need not be identical. Identical values can stand only once.
What was measured:
Type in all cases: in vivo
[1] = test system: Fasciola hepatica aged 6 weeks resistant to salicylanilides (closantel), susceptible to the other drug families used; experiment: Controlled test in sheep: efficacy against immature F. hepatica, salicylanilide-resistant strain; settings: for efficacy: given alone at low dose rates
From the text: (§1) In six controlled tests, a total of 212 merino wethers aged 1 to 2.5 years were used. The sheep were obtained from fluke free areas in North-West New South Wales.
(§2) Some isolates used in the trials were obtained from existing laboratory populations but the majority of the strains were isolated from the field, their resistance status was defined in several controlled tests and the isolates were then maintained in the laboratory. A laboratory strain from Compton U.K. (Compton Paddock Laboratories, Newbury, Berks. UK) was included in the tests. […] The other isolates originated from properties where salicylanilide compounds were used with variable frequency for the control of fasciolosis or haemonchosis, and also various benzimidazole carbamates were used for the control of gastrointestinal nematodes. Those isolates were further selected in the laboratory with benzimidazole compounds, such as luxabendazole (Hoechst Pty.Ltd., Frankfurt am Main, Germany) or by 8 weekly dosing a group of sheep with triclabendazole (Fasinex, CIBA-GEIGY Aust.Ltd., Pendle Hill, NSW Australia) in a 2 acre paddock with natural snail habitats contaminated with Fasciola hepatica .
(§3) In the trials, F.hepatica populations were isolated from properties and passaged through suitable intermediate host snails, Lymnaea tomentosa, L.viridis and L.columella in the laboratory. Sheep were then inoculated with the metacercariae of the selected strains by intraruminal injection of metacercariae suspended in 0.4% carboxy-methylcellulose solution. The sheep were divided into groups of 4 or 5. Standardised control tests (Boray, 1969), were carried out to determine the efficacy of various drugs and combinations against immature F.hepatica isolates.
(§4) Percentage reductions of fluke burdens for the sum of the individual drugs and for the combinations were estimated and their 95 % confidence limits were determined.
(§5) The drugs tested were triclabendazole (Fasinex, CIBA-GEIGY Australia Ltd.), clorsulon (Curatrem, MSD AGVET Rahway, New Jersey, USA), luxabendazole (Hoechst Pty.Ltd., Frankfurt am Main, Germany), closantel (Seponver, SmithKline Animal Health Australia Ltd.), closantel injectible (Flukiver, Janssen Pharma, Belgium), clorsulon injectible (Ivomec F, MSD Agvet,Rahway, New Jersey, USA) and nitroxynil injectible (Trodax, Cyanamid-Webster Australia Ltd.) The commercial formulations were used and for uniform pharmacokinetic distribution they were injected intraruminally (for those drugs it is equal to oral dosing) at the selected dose rate according to the body weight of the sheep 6 weeks after inoculation. In the trials with the injectible nitroxynil the drugs were applied as a subcutaneous injection. For each trial a group of sheep were left untreated as controls. The sheep were slaughtered 16 weeks after inoculation and the flukes were recovered from the livers and counted. […] The dose rates were selected based on many preliminary studies on the efficacy against F.hepatica aged 6 weeks. […] According to accepted standards (Boray, 1969) high efficacy is achieved when the drug reduces the fluke burden by 90% or more.

[2] = test system: Fasciola hepatica aged 6 weeks resistant to triclabendazole; experiment: Controlled test in sheep: efficacy against immature F. hepatica, triclabendazole-resistant strain
From the text: as §1, §2, §3, §4, §5

[3] = test system: Fasciola hepatica aged 6 weeks, resistant to salicylanilides; experiment: Controlled test in sheep, subcutaneous injection: efficacy against immature F. hepatica, Hampton II strain
From the text: as §1, §2, §3, §4, §5

[4] = test system: Fasciola hepatica aged 6 weeks (Susceptible to the drugs used); experiment: Controlled test in sheep: efficacy against immature F. hepatica, susceptible strain
From the text: as §1, §2, §3, §4, §5

[5] = test system: Fasciola hepatica aged 6 weeks resistant to salicylanilides (closantel) and benzimidazole carbamates (luxabendazole); experiment: Controlled test in sheep: efficacy against immature F. hepatica, multiple resistant Armidale-Morven strain
From the text: as §1, §2, §3, §4, §5

[6] = 5.0 mg/kg intraruminal, 5 mg/kg
[7] = 3.0 mg/kg subcutaneous injection
[8] = 7.5 mg/kg intraruminal, 7.5 mg/kg
[9] = 5.0 mg/kg intraruminal, listed as luxabendazole, 5 mg/kg
[10] = 7.0 mg/kg subcutaneous injection
[11] = 2.0 mg/kg intraruminal, 2 mg/kg

Compound: CCCSc1ccc2nc(NC(=O)OC)[nH]c2c1 [Albendazole, albendazole]
- Mean No. of Fluke (SD) ([1]; 5.0 mg/kg intraruminal): 52.7 (6.9)
- Percent Reduction of Fluke Burden (95% Confidence limits) ([1]; 5.0 mg/kg intraruminal): 28.4 (6, 72) %
- efficacy [1]: very low efficacy

Compound: Nc1cc(C(Cl)=C(Cl)Cl)c(S(N)(=O)=O)cc1S(N)(=O)=O [Clorsulon, clorsulon]
- Mean No. of Fluke (SD) ([2]; 3.0 mg/kg intraruminal): 55.7 (42.9)
- Percent Reduction of Fluke Burden (95% Confidence limits) ([2]; 3.0 mg/kg intraruminal, 3 mg/kg): 30% and 30.5 (2, 91) %
- Mean No. of Fluke (SD) ([2]; 5.0 mg/kg intraruminal): 45.0 (26.3)
- Percent Reduction of Fluke Burden (95% Confidence limits) [2, 6]: 43% and 43.9 (7, 89) %
- Mean No. of Fluke (SD) ([3]; 2.0 mg/kg subcutaneous injection): 18.4 (6.6)
- Percent Reduction of Fluke Burden (95% Confidence limits) ([3]; 2.0 mg/kg subcutaneous injection, 2 mg/kg): 36.6 (9.76) %
- Percent Reduction of Fluke Burden (95% Confidence limits) ([3]; 2.0 mg/kg subcutaneous injection, listed as clorsulon, 2 mg/kg): 36.5%
- Mean No. of Fluke (SD) ([4]; 3.0 mg/kg intraruminal): 32.5 (4.4)
- Percent Reduction of Fluke Burden (95% Confidence limits) ([4]; 3.0 mg/kg intraruminal): 25.9 (6, 67) %
- Mean No. of Fluke (SD) ([4]; 5.0 mg/kg intraruminal): 30.0 (11.6)
- Percent Reduction of Fluke Burden (95% Confidence limits) ([4]; 5.0 mg/kg intraruminal): 31.6 (9, 67) %
- Mean No. of Fluke (SD) ([1]; 3.0 mg/kg intraruminal): 57.5 (19.6)
- Percent Reduction of Fluke Burden (95% Confidence limits) ([1]; 3.0 mg/kg intraruminal): 21.9 (3, 74) %
- efficacy [1]: very low efficacy
- Mean No. of Fluke (SD) ([5]; 5.0 mg/kg intraruminal): 41.0 (3.7)
- Percent Reduction of Fluke Burden (95% Confidence limits) [5, 6]: 52.7 (33,72) %
- Percent Reduction of Fluke Burden (95% Confidence limits) ([5]; 5.0 mg/kg intraruminal, listed as clorsulon, 5 mg/kg): 52%

Compound: Cc1cc(C(C#N)c2ccc(Cl)cc2)c(Cl)cc1NC(=O)c1cc(I)cc(I)c1O (centres unmarked) [Closantel, closantel]
- Mean No. of Fluke (SD) [3, 7]: 24.4 (14.4)
- Percent Reduction of Fluke Burden (95% Confidence limits) [3, 7]: 15.9%
- Mean No. of Fluke (SD) ([1]; 5.0 mg/kg intraruminal): 62.0 (17.1)
- Mean No. of Fluke (SD) ([1]; 7.5 mg/kg intraruminal): 48.2 (38 6)
- Percent Reduction of Fluke Burden (95% Confidence limits) ([1]; 7.5 mg/kg intraruminal): 34.5 (10, 72) %
- efficacy [1]: very low efficacy
- Mean No. of Fluke (SD) ([5]; 7.5 mg/kg intraruminal): 118 (113.3)
- Percent Reduction of Fluke Burden (95% Confidence limits) ([5]; 7.5 mg/kg intraruminal): 0.0%
- Percent Reduction of Fluke Burden (95% Confidence limits) [5, 8]: inefficient

Compound: COC(=O)Nc1nc2ccc(Sc3ccccc3)cc2[nH]1 [Fenbendazole, fenbendazole]
- Mean No. of Fluke (SD) ([1]; 5.0 mg/kg intraruminal): 71.0 (8.0)
- Percent Reduction of Fluke Burden (95% Confidence limits) ([1]; 5.0 mg/kg intraruminal): 3.6%
- efficacy [1]: very low efficacy

Compound: COC(=O)Nc1nc2cc(OS(=O)(=O)c3ccc(F)cc3)ccc2[nH]1 [Luxabendazole, luxabendazole]
- Mean No. of Fluke (SD) ([2]; 5.0 mg/kg intraruminal): 62.7 (61.3)
- Percent Reduction of Fluke Burden (95% Confidence limits) [2, 6]: 21.7 (1, 95) %
- Percent Reduction of Fluke Burden (95% Confidence limits) [2, 9]: 21%
- Mean No. of Fluke (SD) ([4]; 5.0 mg/kg intraruminal): 32.0 (9.5)
- Percent Reduction of Fluke Burden (95% Confidence limits) [4, 6]: 27.0 (6, 67) %
- Percent Reduction of Fluke Burden (95% Confidence limits) [4, 9]: 26%
- Mean No. of Fluke (SD) ([1]; 5.0 mg/kg intraruminal): 51.7 (25.3)
- efficacy [1]: very low efficacy
- Mean No. of Fluke (SD) ([5]; 7.5 mg/kg intraruminal): 89.0 (22.6)
- Percent Reduction of Fluke Burden (95% Confidence limits) ([5]; 7.5 mg/kg intraruminal): 0.0%
- Percent Reduction of Fluke Burden (95% Confidence limits) [5, 8]: inefficient

Compound: N#Cc1cc(I)c(O)c([N+](=O)[O-])c1 [Nitroxynil, nitroxynil]
- Mean No. of Fluke (SD) [3, 10]: 26.6 (6.6)
- Percent Reduction of Fluke Burden (95% Confidence limits) [3, 10]: 8.3%

Compound: COC(=O)Nc1nc2ccc([S+]([O-])c3ccccc3)cc2[nH]1 (centres unmarked) [Oxfendazole, oxfendazole]
- Mean No. of Fluke (SD) ([1]; 5.0 mg/kg intraruminal): 74.5 (14.8)
- efficacy [1]: very low efficacy

Compound: CSc1nc2cc(Cl)c(Oc3cccc(Cl)c3Cl)cc2[nH]1 [Triclabendazole, triclabendazole]
- Mean No. of Fluke (SD) ([2]; 2.0 mg/kg intraruminal): 55.0 (51.1)
- Percent Reduction of Fluke Burden (95% Confidence limits) [2, 11]: 31.4 (2, 91) %
- Percent Reduction of Fluke Burden (95% Confidence limits) ([2]; 2.0 mg/kg intraruminal, listed as triclabendazole, 2 mg/kg): 30%
- Mean No. of Fluke (SD) ([4]; 2.0 mg/kg intraruminal 6 weeks after inoculation, slaughter at 16 weeks): 9.2 (8.3)
- Percent Reduction of Fluke Burden (95% Confidence limits) ([4]; 2.0 mg/kg intraruminal, vs untreated controls, 2 mg/kg): 78.9 (58, 91) %
- Percent Reduction of Fluke Burden (95% Confidence limits) ([4]; 2.0 mg/kg intraruminal, vs untreated controls, listed as triclabendazole, 2 mg/kg): 79%
- Mean No. of Fluke (SD) ([5]; 2.0 mg/kg intraruminal): 25.5 (13.5)
- Percent Reduction of Fluke Burden (95% Confidence limits) ([5]; 2.0 mg/kg intraruminal): 70%
- Percent Reduction of Fluke Burden (95% Confidence limits) [5, 11]: 70.6 (53, 83) %

Source: patent publication EP0710105B1, “SYNERGISTIC ANTHELMINTIC COMPOSITIONS AGAINST FASCIOLA HEPATICA AND OTHER FASCIOLA SPECIES” (THE AUSTRALIAN NATIONAL UNIVERSITY, priority 1993, dated 1994)
